For this assay, the system named is keratosis pilaris. As to the kind of experiment: In-vivo study, patients with keratosis pilaris. The conditions noted are these: topical use; arms, buttocks, thighs, and cheeks. The text has this: During use of the skin treatment formulations, the glycolic acid is configured to react with the top layer of skin, i.e., the stratum corneum, by breaking it down while dissolving sebum and other substances that bind dead tissue together. The dead skin cells produced when exposed to the glycolic acid may then be sloughed off with gentle exfoliation, which clears blocked pores and opens comedones to reveal smoother, brighter, younger-looking skin.

The record followed here is patent US20180250314A1, “Skin Treatment System” (priority 2017, published 2018).

Consider `O=C(O)CO` [glycolic acid], for which the “skin appearance in keratosis pilaris patients” value was “clearer and smoother skin”.
